Experimental data reported in ChEMBL document CHEMBL4513144, “CO-ADD screening of University of Central Lancashire (UK) compounds”.
In brackets after ≈: the same amount, converted by molar mass.

How the values were obtained:
Staphylococcus aureus = test: microbe, parasite or virus in culture; details: ATCC 43300, 18 h, ASSAY_TEST Inhibition of Bacterial Growth, detection method Absorption (OD600), MEDIA CAMHB, plate type 384well, NBS, CORNING #3640
Description: Antibacterial activity against Staphylococcus aureus MRSA ATCC 43300 (CO-ADD:GP_020); MIC in CAMBH media, using NBS plates, by OD(600)

Acinetobacter baumannii = test: microbe, parasite or virus in culture; details: ATCC 19606, 18 h, ASSAY_TEST Inhibition of Bacterial Growth, detection method Absorption (OD600), MEDIA CAMHB, plate type 384well, NBS, CORNING #3640
Description: Antibacterial activity against Acinetobacter baumannii ATCC 19606 (CO-ADD:GN_034); MIC in CAMBH media using NBS plates, by OD600

Escherichia coli = test: microbe, parasite or virus in culture; details: ATCC 25922, 18 h, ASSAY_TEST Inhibition of Bacterial Growth, detection method Absorption (OD600), MEDIA CAMHB, plate type 384well, NBS, CORNING #3640
Description: Antibacterial activity against Escherichia coli ATCC 25922 (CO-ADD:GN_001); MIC in CAMBH media using NBS plates, by OD(600)

Klebsiella pneumoniae = test: microbe, parasite or virus in culture; details: ATCC 700603, 18 h, ASSAY_TEST Inhibition of Bacterial Growth, detection method Absorption (OD600), MEDIA CAMHB, plate type 384well, NBS, CORNING #3640
Description: Antibacterial activity against Klebsiella pneumoniae MDR ATCC 70063 (CO-ADD:GN_003); MIC in CAMBH media using NBS plates, by OD(600)

HEK293 = test: cells; assay type: functional; details: Homo sapiens, ATCC CRL1573, HEK293; ASSAY_TEST Inhibition of Cell Viability; detection method Resazurin; Fluorescence (ex560/em590); MEDIA DMEM with 10% FBS; plate type 384well; TC; CORNING #3712; time 18 hr
Pseudomonas aeruginosa = test: microbe, parasite or virus in culture; details: ATCC 27853, 18 h, ASSAY_TEST Inhibition of Bacterial Growth, detection method Absorption (OD600), MEDIA CAMHB, plate type 384well, NBS, CORNING #3640
Description: Antibacterial activity against Pseudomonas aeruginosa ATCC 27853 (CO-ADD:GN_042); MIC in CAMBH media using NBS plates, by OD(600)

Candida albicans = test: microbe, parasite or virus in culture; details: ATCC 90028, ASSAY_TEST Inhibition of Fungal Growth, detection method Absorption (OD530), plate type 384well, NBS, CORNING #3640
Description: Antifungal activity against Candida albicans ATCC 90028 (CO-ADD:FG_001); MIC in YNB media using NBS plates, by OD630

Description for Cryptococcus neoformans: Antifungal activity against Cryptococcus neoformans H99 ATCC 208821 (CO-ADD:FG_002); MIC in YNB media using NBS plates, by Resazurin OD(600-570)

Compound: Oc1ccccc1-c1cc2ccccc2[nH]1 [2-(2'-HYDROXYPHENYL)-1H-INDOLE]
- MIC (Staphylococcus aureus): > 32 µg/mL
- MIC (Cryptococcus neoformans): > 32 µg/mL
- MIC (Acinetobacter baumannii): > 32 µg/mL
- MIC (Escherichia coli): > 32 µg/mL
- MIC (Klebsiella pneumoniae): > 32 µg/mL
- CC50 (HEK293): 0.256 µg/mL (≈ 1.22 µM)
- MIC (Pseudomonas aeruginosa): > 32 µg/mL
- MIC (Candida albicans): > 32 µg/mL
